Active and inactive are the calls of the source. The rule behind the calls is not given here.
Key:
Influenza A virus H3N2 = assay: Antiviral activity against influenza virus H3N2 infected in MDCK cells assessed as reduction in plague formation incubated for 72 hrs by immunofluorescence assay; assay type: functional, organism-based
Dengue virus = assay: Antiviral activity against DENV infected in African green monkey Vero cells assessed as reduction in plague formation incubated for 72 hrs by immunofluorescence assay; assay type: functional, organism-based
Kunjin virus = assay: Antiviral activity against West Nile virus Kunjin infected in African green monkey Vero cells assessed as reduction in plague formation incubated for 72 hrs by immunofluorescence assay; assay type: functional
Influenza A virus = assay: Antiviral activity against influenza virus H1N1 infected in MDCK cells assessed as reduction in plague formation incubated for 72 hrs by immunofluorescence assay; assay type: functional, organism-based
SK-MEL-28 = assay: Cytotoxicity against human SK-MEL-28 cells assessed as reduction in cell viability incubated for 6 days by SRB assay; assay type: functional, cell-based; conditions: SK-MEL-28, 144 h
MCF7 = assay: Cytotoxicity against human MCF7 cells assessed as reduction in cell viability incubated for 6 days by SRB assay; assay type: functional, cell-based; conditions: MCF7, 144 h
NFF = assay: Cytotoxicity against human NFF cells assessed as reduction in cell viability incubated for 6 days by SRB assay; assay type: cell-based; conditions: 144 h

Compound	Activity (Influenza A virus H3N2)	Activity (Dengue virus)	IC50 (Kunjin virus)	Activity (Influenza A virus)	IC50 (SK-MEL-28)	IC50 (MCF7)	IC50 (NFF)	IC50 (Influenza A virus H3N2)	IC50 (Dengue virus)	IC50 (Influenza A virus)
C=C1CC[C@@H]2[C@](C)(CO)[C@H](O)CC[C@@]2(C)[C@@H]1C/C=C1/C(=O)OC[C@H]1O [ANDROGRAPHOLIDE]	inactive	Active	100 µM	inactive	–	–	–	–	–	–
C=C[C@]1(C)C[C@@]2(O)[C@H](CC1=O)C13CO[C@@](O)([C@H]1[C@@](C)(COC(=O)c1ccccc1)CC[C@H]3O)[C@H]2OC(C)=O	–	Active	–	–	70 µM	57 µM	53 µM	–	–	–
C=C[C@]1(C)C[C@@]23O[C@@H](OC(C)=O)C4([C@H]2C[C@@H]1O)[C@@H](O)CCC(C)(C)[C@@H]4C(=O)[C@H]3OC(C)=O	–	Active	–	–	158 µM	86 µM	95 µM	–	–	–
C=C[C@]1(C)C[C@]2(O)[C@H](OC(C)=O)C(=O)[C@H]3C(C)(C)CC[C@H](O)[C@]3(COC(C)=O)[C@H]2C[C@@H]1OC(C)=O	–	Active	–	–	> 200 µM	179 µM	> 200 µM	–	–	–
C=C/C(C)=C/C[C@H]1C(C)=CC[C@@H]2[C@]1(C)CCC[C@@]2(C)C(=O)O	–	–	1.2 µM	–	–	–	–	18 µM	1.4 µM	4.1 µM
